Data from patent US8211445B2, “PSM peptides as vaccine targets against methicillin-resistant Staphylococcus” (The United States of America, as represented by the …, priority 2007, dated 2012).
Residues, ends and D or L forms follow the SMILES beside them. No end group written: not given here. *: point of attachment. For = O=C*

Legend:
human PMN = test: Measurement of cytokine production by human PMN (ELISA); type: cell-based; design: key to IL-8: x: reduced activity; xx: strongly reduced activity; conditions: for IL-8: secretion of IL-8 by human neutrophils, relative to wild type PSMα3; for IL-8 secretion: compared with wild type PSMα3
Description: After isolation and washing, PMN or PBMC were resuspended in RPMI 1640 medium (Sigma) supplemented with 10% human serum, 2 mM L-glutamine, 100 U/ml penicillin, 100 μg/ml streptomycin, 2 mM sodium pyruvate, and 10 mM HEPES. Cells were distributed to a 96-well culture plate at 200 μl and 5×10^5 cells per well. Synthetic PSM peptides or filtered bacterial culture supernatants were diluted in fresh culture medium and added to the plate at 100 μl/well. Plates were incubated at 37° C. in a 5.5% CO2 incubator for 5 hours. Then, the plate was centrifuged at 1500 rpm for 10 minutes, and supernatant was harvested from each well. Mono Mac 6 cells were obtained from DSMZ (Germany), and were grown in RPMI 1640 plus 10% heat inactivated fetal bovine serum (HyClone), 2 mM L-glutamine, 10.0 units/ml penicillin, 10.0 μg/ml streptomycin, 0.2× non-essential amino acid solution, and OPI medium supplement (Sigma). Cells were grown in T75 culture flasks in a 37° C. CO2 incubator and harvested by centrifugation. After removal of supernatant, cells were resuspended in fresh culture medium, counted, and distributed into a 96-well cell culture plate at 100 μl and 2.5×10^5 cells per well. Phorbol 12-myristate 13-acetate (Sigma) was added to a final concentration of 2.5 ng/ml for cell pre-stimulation. The plate was incubated in a 37° C. CO2 incubator for 3 hours. At the end of the pre-stimulation period, synthetic PSM peptides were diluted in culture medium and added to the cells at 100 μl/well. Cells were incubated in a 37° C. CO2 incubator for 20-22 hours, and the plate was centrifuged at 1500 rpm for 10 minutes. Human TNF-α, IL-1β, IL-8, and mouse TNF-α were measured in the culture supernatants with commercial ELISA assay kits (R&D systems) according to the manufacturer's instructions.
(§1) Human neutrophil assays: Human neutrophil isolation, chemotaxis, calcium ion flux, priming, lysis assays, and measurement of IL-8 production were performed as described in Example 2.

human neutrophils [1] = test: Lysis of human neutrophils (release of lactate dehydrogenase); type: cell-based; design: key to Neutrophil lysis: x: reduced activity; xx: strongly reduced activity; conditions: for Neutrophil lysis: pro-inflammatory activity of PSMα3 mutants, relative to wild type PSMα3; for ability to promote neutrophil lysis: compared with wild type PSMα3
Description: (§2) Lysis of PMNs by synthetic PSMs or clarified S. aureus culture media was determined essentially as described (Voyich et al., J Infect Dis 194, 1761-70, 2006; Voyich et al., J Immunol 175, 3907-19, 2005). Synthetic PSMs (1 or 10 μg/ml) were added to wells of a 96-well tissue culture plate containing 10^6 PMNs and plates were incubated at 37° C. for up to 3 hours. At the desired times, PMN lysis was determined by release of lactate dehydrogenase (LDH; Cytotoxicity Detection Kit, Roche Applied Sciences). Alternatively, wild-type and isogenic mutant S. aureus strains were cultured for 18 hours at 37° C. in 50 ml TSB with shaking using a 100 ml flask. Bacteria were removed by centrifugation and culture media were sterilized by filtration and stored at −80° C. in aliquots until used. Culture medium was diluted 1:10 in RPMI/H, mixed with human PMNs (10^6) and tested for its ability to cause PMN lysis.
as §2, with “above in Example 2.” for “(Voyich et al., J Infect Dis 194, 1761-70, 2006; Voyich et al., J Immunol 175, 3907-19, 2005).”
as §1

[2] = Immunization of mice with synthetic PSM peptides, PSM-specific antibodies by ELISA; type: in vivo, mice (BALB/c); conditions: 50 μg s.c. with CFA, booster with IFA
Description: In order to determine the immunogenicity of synthetic PSM peptides, mice (BALB/c, female, 6-8 weeks) were injected subcutaneously with 50 μg (100 μL) of each PSM peptide in sterile PBS emulsified with complete Freund's adjuvant (CFA) for primary immunization. A booster injection containing incomplete Freund's adjuvant (IFA) instead of CFA was given to the animals 14 days after the primary immunization. The control group of animals received injections of sterile PBS and adjuvants only. Three blood withdrawals were performed on each mouse. The first two blood samples were collected via retro-orbital route immediately before primary injection and before booster injection, respectively. All animals were sacrificed 21 days after booster injection for the terminal blood samples.
PSM-specific antibodies in mouse serum were determined by ELISA assays. Microtiter plates (Nunc 96-well flat-bottom MaxiSorp plates) were coated with 20 μg/ml of each synthetic PSM peptides in PBS plus 0.05% NaN3, and incubated overnight at 4° C. The plates were washed with PBS containing 0.05% Tween-20, and blocked for 1 hour at room temperature with 1% BSA (Sigma) and 0.05% NaN3 in PBS. Serum samples were diluted in assay diluent (Tris-buffered saline containing 0.1% BSA and 0.05% Tween-20, pH 7.2), and added to the washed wells at 100 μl/well for an incubation of 2 hours at room temperature. Plates were washed again and HRP-labeled goat anti-mouse IgG (R&D Systems) and goat anti-mouse IgM (Jackson ImmunoResearch Laboratory) were diluted in assay diluent and added to the plates at 100 μl/well for an incubation of 1 hour at room temperature in order to detect PSM specific mouse IgG and IgM, respectively. Plates were washed again and a substrate solution containing equal volume of Tetramethylbenzidine and H2O2 was added to the plates at 100 μl/well for color development. The reaction was terminated by adding 50 μl of 1 M H2SO4 to each well, and optical density (O.D.) was measured at 450 nm using an ELISA plate reader.

human neutrophils [3] = test: Priming of human neutrophils (surface expression of CD11b and gp91phox); type: cell-based; design: key to CD11b: x: reduced activity; xx: strongly reduced activity; conditions: for CD11b: surface expression of CD11b on human neutrophils, relative to wild type PSMα3; for ability to increase CD11b expression: compared with wild type PSMα3
Description: (§3) Priming of PMNs by synthetic PSMs was determined by increased surface expression of CD11b and gp91phox (granule exocytosis). PMNs were incubated with 10-10,000 ng/ml PSM, 10 μM fMLP, 10 ng/ml lipopolysaccharide, or 10 μg/ml lipoteichoic acid in 96-well tissue culture plates at 37° C. with rotation for 60 minutes. The assay was terminated by centrifuging cells at 4° C. for 8 minutes at 350×g. Cells were washed twice in cold Dulbecco's phosphate-buffered saline and stained with and isotype control antibody (BD Biosciences) or those specific for CD11b (mAb 44, BD Biosciences) or gp91phox (mAb 7D533). Propidium iodide (0.5 μg/ml) was used to identify dead cells. PMNs were analyzed on a FACSCalibur flow cytometer (Becton Dickinson) and dead cells were excluded with a single gate. Percent positive neutrophils were determined with a marker defined by the boundary of the isotype-matched control antibody.
as §3, with “10-10000” for “10-10,000”, “7D5).” for “7D533).”
as §1

sheep red blood cells = test: Hemolysis of sheep red blood cells; type: cell-based; conditions: 10 μg/ml, compared to other PSMs (FIG. 21G)
Description: FIG. 8 includes several graphs showing hemolytic activities of PSMs. […] In FIGS. 8A and 8B, the data are mean±SEM of three independent measurements. P values are vs. DMSO in FIG. 8A and vs. wild-type in FIG. 8B. Hemolytic activity was determined by incubating samples with a 2% (v/v) suspension of sheep red blood cells and incubation at 37° C. for 1 hour. Synthetic PSM peptides or filtered bacterial overnight culture supernatants were diluted in PBS and added to sheep erythrocytes at a final concentration of 10 μg/ml for the peptides and 1:200 for culture filtrates.
Hemolysis: Hemolytic activity of PSM peptides was determined by incubating samples with a 2% (v/v) sheep red blood cells and incubation for 1 h at 37° C. as described (Wang et al., Nature Med. 13:1510-1514, 2007). Hemolytic activity of S. aureus wild-type and psm-mec deletion strains was assessed by streaking on sheep blood agar plates.

MRSA strains = conditions: cited from earlier work
[4] = non N-formylated synthetic PSM peptides, BALB/c mice (FIG. 12)
[5] = N-formylated synthetic PSM peptides, BALB/c mice (FIG. 11)

Compound | IL-8 (human PMN) | Neutrophil lysis (human neutrophils [1]) | further results
fMEFVAKLFKFFKDLLAKFLGNN [#14] | xx | – | –
fMEFVAKLFKFFKDLLGAFLGNN [#15] | xx | xx | –
fMEFVAKAFKFFKDLLGKFLGNN (For-MEFVAKAFKFFKDLLGKFLGNN; listed as Staphylococcus aureus) [#5] | – | xx | –
MEGLFNAIKDTVTAAINNDGAKLGTSIVSIVENGVGLLGKLFGF (S. aureus) [PSMβ1] | – | – | specific antibody production in vivo [2, 4]: strongest response
fMEFVAKLFKFFKDLLGKFLGNA [#20] | xx | x | CD11b (human neutrophils [3]): x
MGIIAGIIKVIKSLIEQFTGK (S. aureus) [PSMα1] | – | – | specific antibody production in vivo [2, 5]: most robust antibody production; specific antibody production in vivo [2, 4]: strongest response
fMEFAAKLFKFFKDLLGKFLGNN (For-MEFAAKLFKFFKDLLGKFLGNN; listed as Staphylococcus aureus) [#3] | xx | – | –
fMEFVAKLFKFFKALLGKFLGNN [#11] | xx | – | –
fMEFVAALFKFFKDLLGKFLGNN (For-MEFVAALFKFFKDLLGKFLGNN; listed as Staphylococcus aureus) [#4] | xx | xx | –
CC[C@H](C)[C@H](NC(=O)[C@H](CS)NC(=O)[C@@H](NC(=O)[C@H](CCCCN)NC(=O)[C@@H](NC(=O)[C@H](CC(C)C)NC(=O)[C@H](CC(=O)O)NC(=O)[C@@H](NC(=O)[C@@H](NC(=O)[C@H](CO)NC(=O)[C@@H](NC(=O)[C@@H](NC(=O)[C@@H](NC(=O)CNC(=O)[C@@H](NC(=O)[C@H](Cc1ccccc1)NC(=O)[C@H](CC(=O)O)NC(=O)[C@H](CCSC)NC=O)[C@@H](C)O)C(C)C)[C@@H](C)CC)[C@@H](C)O)[C@@H](C)CC)[C@@H](C)CC)[C@@H](C)CC)[C@@H](C)O)C(=O)N[C@@H](CCC(N)=O)C(=O)N[C@@H](C)C(=O)N[C@@H](Cc1ccccc1)C(=O)NCC(=O)O [PSM-mec] (HELM PEPTIDE1{[O=C[*:2]].M.D.F.T.G.V.I.T.S.I.I.D.L.I.K.T.C.I.Q.A.F.G}$$$$V2.0) | – | – | lysis of sheep erythrocytes (sheep red blood cells): intermediate range
CN[C@H](CC(C)C)C(=O)N[C@H]1C(=O)N[C@@H](CC(N)=O)C(=O)N[C@H]2C(=O)N[C@H]3C(=O)N[C@H](C(=O)N[C@H](C(=O)O)c4cc(O)cc(O)c4-c4cc3ccc4O)[C@H](O)c3ccc(c(Cl)c3)Oc3cc2cc(c3O[C@@H]2O[C@H](CO)[C@@H](O)[C@H](O)[C@H]2O[C@H]2C[C@](C)(N)[C@H](O)[C@H](C)O2)Oc2ccc(cc2Cl)[C@H]1O [vancomycin] | – | – | minimum inhibitory concentration [MIC] (MRSA strains; MRSA strains with decreased susceptibility to vancomycin): 8 to 16 µg/mL; MIC (MRSA strains; strains fully resistant to vancomycin): ≥ 32 µg/mL
fMAFVAKLFKFFKDLLGKFLGNN [#1] | – | xx | CD11b (human neutrophils [3]): x
fMEFVAKLFKFFADLLGKFLGNN (For-MEFVAKLFKFFADLLGKFLGNN; listed as Staphylococcus aureus) [#10] | xx | x | CD11b (human neutrophils [3]): xx
MEFVAKLFKFFKDLLGKFLGNN [PSMα3, no formyl] | xx | x | ability to promote neutrophil lysis (human neutrophils [1]): reduced ability; ability to increase CD11b expression (human neutrophils [3]): strongly reduced ability; CD11b (human neutrophils [3]): xx; IL-8 secretion (human PMN): strongly reduced ability
MAIVGTIIKIIKAIIDIFAK [PSMα4] | – | – | specific antibody production in vivo [2, 5]: most robust antibody production
fMEFVAKLFAFFKDLLGKFLGNN [#7] | xx | – | –
fMEFVAKLFKFFKDLLGKFLGAN [#19] | xx | xx | ability to promote neutrophil lysis (human neutrophils [1]): greatest reduction; ability to increase CD11b expression (human neutrophils [3]): greatest reduction; CD11b (human neutrophils [3]): xx; IL-8 secretion (human PMN): greatest reduction
